What was measured:
MMP-1 = target: T1, MMP-1 (Homo sapiens, UniProt P03956); assay: MMP-1 spectrofluorometric enzyme activity assay; type: biochemical; details: 50 μM compound; read-out: MMP-1 activity inhibited
T1 construct: made in house; host or cells: Sf21 insect cells, baculovirus (pBlueBac4.5)
T1 sequence (P03956 100-469): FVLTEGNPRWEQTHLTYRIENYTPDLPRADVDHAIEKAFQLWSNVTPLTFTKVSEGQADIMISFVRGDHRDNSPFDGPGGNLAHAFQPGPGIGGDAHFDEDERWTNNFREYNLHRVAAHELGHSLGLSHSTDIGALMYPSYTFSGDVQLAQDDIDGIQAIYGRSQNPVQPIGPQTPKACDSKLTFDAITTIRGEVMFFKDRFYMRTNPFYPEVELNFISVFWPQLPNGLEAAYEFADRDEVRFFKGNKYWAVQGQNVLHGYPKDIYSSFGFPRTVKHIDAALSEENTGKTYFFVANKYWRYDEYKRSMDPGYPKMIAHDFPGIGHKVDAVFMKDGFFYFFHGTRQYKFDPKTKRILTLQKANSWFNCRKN
Protocol: MMP-1, MMP-2, MMP-9 and MMP-13 were cloned and prepared from insect cells (Sf21 insect cell) by using a Baculovirus system.
Each cDNA for corresponding MMPs was cloned to a pBlueBac4.5 transfer vector (Invitrogen, Cat no. V1995-20), and then transfected to Sf21 cells with a Bac-N-Blue Transfection Kit (Invitrogen, Cat no. K855-01). Sf21 cells were incubated with a TNM-FH (Sigma, St. Louis, Mo., U.S.A) media containing 10% fetal bovine serum at 27° C., then harvested and re-suspended at a concentration of 10^7 cell/Ml. The cell suspension was incubated with a virus containing the cloned gene for 1 hr at room temperature. Infected Sf21 cells were grown for 72 hrs and the medium was recovered, and the MMP was purified. MMP-2 (GENEBANK No. XM—048244) and MMP-9 (GENEBANK No. XM—009491) were recovered from a gelatin-sepharose affinity column (Sigma, G5384) by eluting with 5% DMSO-containing buffer. […]
As a control, 2 Ml of reaction buffer (50 mM Tricine, pH 7.5, 10 mM CaCl2, 200 mM NaCl) comprising DMSO, 10 nM of enzyme and 10 μM of substrate was prepared in a cuvette. Fluorescence intensity was measured for 5-10 min at room temperature with a spectrofluorometer.
50 μM Chalcone or its derivatives were added to a reaction buffer containing a substrate and enzyme, and fluorescence intensity was measured in the same manner.

[1] = test system: experimentally induced comedones; assay: Comedolysis by EIC (experimentally induced comedones) formation; type: in vivo, New Zealand white rabbits; details: topical once a day, 3 weeks
Excerpt: Effects of chalcone on comedolysis were studied using subjects of ten mature New Zealand white rabbits, which were bred to approximately 2 kg of body weight for several weeks. In order to generate EIC, 50% oleic acid in polyethylene glycol was applied to both ears of rabbits for 2 weeks. The experimental agent was applied to the ventral surface near the auditory canal once a day with the tip of a cotton stick. 18 ears of rabbits were divided into three groups, and only one of ethanol-propylene glycol (1:1) (control), 1% chalcone in ethanol-propylene glycol (1:1), or 5% chalcone in ethanol-propylene glycol (1:1) was applied on each groups for 3 weeks. The remaining 2 ears were left untreated. Biopsy specimens were taken at 3 week by punch and specimens were fixed in 10% formalin solution and embedded in paraffin for light microscopic examination. Sections of 5 μm thickness were cut and hematoxylin and eosin stain were performed. Under light microscope, fairly large comedones were formed showing hyperplasia and hyperkeratosis of epithelium in specimen treated with vehicle only. The formation of comedones decreased in specimen treated with 1% or 5% of chalcone.

rat aortic rings = assay: Rat aortic ring angiogenesis assay; type: cell-based, Sprague Dawley rats; details: day 10; for Microvessel density: control 19.5±1.8
Excerpt: The effect of chalcone or its derivatives on angiogenesis was studied by culturing aortic explants in three-dimensional matrix gels according to the procedure of Kruger and Figg (Clinical Cancer Research 7:1867-1872, 2001). Thoracic aortas were excised from 8-week-old male Sprague Dawley rats and the fibroadipose tissue was removed. The aortas were sectioned into 1-mm-long cross-sections, rinsed with Human Endothelial-SFM (GIBCO), placed on the Matrigel-coated wells, covered with additional 50 ul Matrigel, and allowed to gel for more than 30 min at 37° C., 5% CO2. All the rings were cultured in Human Endothelial-SFM (GIBCO) supplemented with 200 ug/ml of ECGS (Endothelial Cell Growth Supplement, Sigma) as an angiogenesis inducer. Chalcone diluted with ethanol was added to the culture medium at final concentrations of 1 uM and 100 uM. 1% of ethanol only was added to the culture medium as a vehicle control. All assays were performed by using 5 aortic rings per sample. Aortic rings were photographed on day 10. The area of angiogenic sprouting was calculated using Image-Pro Plus software program (Media Cybernetics). Microvessel densities are reported in percent area.

[2] = test system: human umbilical vein endothelial cells (HUVECs); assay: Tube formation of HUVEC on Matrigel; type: cell-based; details: 50 μM, 8-16 hrs
Excerpt: The effect of chalcone or its derivatives on human endothelial cells was investigated to evaluate the biological effect of chalcones as MMP inhibitors. Since MMPs are responsible for the degradation of extracellular matrix, chalcone or its derivatives can inhibit the formation of tubular network of vessel, which represent migration and differentiation of endothelial cell. Blood vessel endothelial cells, human umbilical vein endothelial cells (HUVECs), were isolated from freshly obtained cords after cesarean section according to Grants' method (Grants D. S., et al., Cell, 58, pp933-943, 1989). They were identified by immunocytochemical staining with anti-Factor VIII antibody. HUVECs cultured on Matrigel (BD Bioscience, Bedford, Mass., USA) were treated with 50 μM of chalcone or its derivatives, and further incubated at 37° C. for 8-16 hrs. As a control, the procedure was repeated with the solvent of the above compounds.

TPA-induced ear edema = TPA-induced ear edema model; type: in vivo, ICR mouse; details: FIG. 7

O=C(/C=C/c1ccccc1)c1ccccc1 [Chalcone]
inhibition at 50 µM (MMP-1): ~75% | Formation of comedones ([1]; 1% chalcone in ethanol-propylene glycol (1:1)): decreased | Formation of comedones ([1]; 5% chalcone in ethanol-propylene glycol (1:1)): decreased | Microvessel density (rat aortic rings; 1 uM): 18.5±1.2 percent area | Microvessel density (rat aortic rings; 100 uM): 1.7±0.1 percent area | inhibition at 1 µM (rat aortic rings; Rattus norvegicus, 240 h, 1 uM, read-out: Inhibition of microvessel formation compared to control): 5.1% | inhibition at 100 µM (rat aortic rings; Rattus norvegicus, 240 h, 100 uM, read-out: Inhibition of microvessel formation compared to control): 91.3% | Tubular (microvascular) network formation of HUVEC [2]: microvascular network was disconnected | Dose dependence of anti-inflammatory activity (TPA-induced ear edema): dose dependent

Source: patent publication US7572831B2, “Composition containing chalcone” (Angiolab, Inc., priority 2002, dated 2009)
